From patent US20240376056A1, “PHENYL ACETAMIDE BASED IL-17A MODULATORS AND USES THEREOF” (DiCE Alpha, Inc., priority 2021, published 2024)

Molecular target: T1, IL-17A/A (Homo sapiens, UniProt Q16552)
T1 construct: purchased Genscript Z03228
T1 sequence (Q16552 24-155): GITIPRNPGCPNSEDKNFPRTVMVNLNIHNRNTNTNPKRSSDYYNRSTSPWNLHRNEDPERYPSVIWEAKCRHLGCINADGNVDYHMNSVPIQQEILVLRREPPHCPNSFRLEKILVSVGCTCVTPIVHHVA
Assay: HEK-Blue IL-17A/A inhibition assay (SEAP reporter)
Type: cell-based
Conditions: HEK-Blue cells (HEK 293 expressing IL-17RA, IL-17RC, Act1); IL-17A/A stimulation; 20 hours; SEAP read at A630; 4-parameter fit
Experimental: The HEK-Blue #NC108637 […]. Cells were grown and prepared for assays according to the manufacturer's instructions. This cell line consists of HEK 293 cells that were designed to expressed IL-17R^A, IL-17RC, and the ActI adapter molecule, the combination of which. when stimulated by IL-17A/A activates a NFtcB promoter and drives expression of a recombinant Secreted Alkaline Phosphatase (SEAP) geneprotein. Media from the cells is then added to a development reagent (Quanti-Blue Substrate, Fisher #NC971 1613), and read at A630.
Compounds were titrated in DMSO. with a top final compound concentration of 10 uM, 1 uM, or 0.3 uM, and added to the cells immediately before adding IL-17A/A (Genscript #Z03228). The cells, compound, and IL-17A/A were then incubated for 20 hours before media was removed for SEAP analysis. The resulting inhibition curve was then analyzed using Graphpad Prism 7.0, and IC50 values were determined using a 4-parameter nonlinear fit. DMSO was added to a universal final concentration of 0.1% to optimze background.

SMILES: CCC(C(=O)NCC(F)(F)F)c1ccc(NC(=O)[C@@H](NC(=O)c2ccnn2C(C)C)C(C2CC2)C2CC2)c(F)c1 (single isomer, unassigned) [Compound 149]
- IC50: 100 to 1000 nM

SMILES: CCC(C(=O)NCC(F)(F)F)c1ccc(NC(=O)[C@@H](NC(=O)c2ccnn2C(C)C)C(C2CC2)C2CC2)c(F)c1 (single isomer, unassigned) [Compound 150]
- IC50: > 1000 nM

SMILES: CC(C)n1nccc1C(=O)N[C@H](C(=O)Nc1ccc([C@H](C)C(=O)NC(C2CCOC2)C(F)(F)F)cc1F)C(C1CC1)C1CC1 (single isomer, unassigned) [Compound 151]
- IC50: 100 to 1000 nM

SMILES: CC(C)n1nccc1C(=O)N[C@H](C(=O)Nc1ccc([C@H](C)C(=O)NC(C2CCOC2)C(F)(F)F)cc1F)C(C1CC1)C1CC1 (single isomer, unassigned) [Compound 152]
- IC50: 100 to 1000 nM

SMILES: CCOC(=O)Nc1cc(NC(=O)[C@@H](NC(=O)c2ccnn2C(C)C)C(C2CC2)C2CC2)c(F)cc1C(C)C(=O)NCC(F)(F)F (single isomer, unassigned) [Compound 158]
- IC50: < 100 nM

SMILES: CC(=O)Nc1cc(NC(=O)[C@@H](NC(=O)c2ccnn2C(C)C)C(C2CC2)C2CC2)c(F)cc1C(C)C(=O)NCC(F)(F)F (single isomer, unassigned) [Compound 159]
- IC50: < 100 nM

SMILES: COC(=O)Nc1cc(NC(=O)[C@@H](NC(=O)c2ccnn2C(C)C)C(C2CC2)C2CC2)c(F)cc1C(C)C(=O)NCC(F)(F)F (single isomer, unassigned) [Compound 161]
- IC50: < 100 nM

SMILES: CC(C(=O)N(C)CC(F)(F)F)c1cc(F)c(NC(=O)[C@@H](NC(=O)c2ccnn2C(C)C)C(C2CC2)C2CC2)cc1N(C)C (single isomer, unassigned) [Compound 162]
- IC50: < 100 nM

SMILES: CC(C(=O)NCC(F)(F)F)c1cc(F)c(NC(=O)[C@@H](NC(=O)c2ccnn2C(C)C)C(C2CC2)C2CC2)cc1N(C)C (single isomer, unassigned) [Compound 163]
- IC50: < 100 nM

SMILES: CNc1cc(NC(=O)[C@@H](NC(=O)c2ccnn2C(C)C)C(C2CC2)C2CC2)c(F)cc1C(C)C(=O)NCC(F)(F)F (single isomer, unassigned) [Compound 164]
- IC50: < 100 nM

SMILES: CC(=O)NC(C(=O)NCC(F)(F)F)c1ccc(NC(=O)[C@@H](NC(=O)c2ccnn2C(C)C)C(C2CC2)C2CC2)c(F)c1 (single isomer, unassigned) [Compound 167]
- IC50: 100 to 1000 nM

SMILES: CCn1nccc1C(=O)N[C@H](C(=O)Nc1c(F)cc(C(C)C(=O)NCC(F)(F)F)cc1F)C(C1CC1)C1CC1 (single isomer, unassigned) [Compound 170]
- IC50: > 1000 nM

SMILES: CCn1nccc1C(=O)N[C@H](C(=O)Nc1c(F)cc(C(C)C(=O)NCC(F)(F)F)cc1F)C(C1CC1)C1CC1 (single isomer, unassigned) [Compound 171]
- IC50: 100 to 1000 nM

SMILES: Cc1cc(NC(=O)[C@@H](NC(=O)c2ccnn2C(C)C)C(C2CC2)C2CC2)c(F)cc1C(C)C(=O)N1CC(O)CC1C(F)(F)F (single isomer, unassigned) [Compound 172]
- IC50: 100 to 1000 nM

SMILES: Cc1cc(NC(=O)[C@@H](NC(=O)c2ccnn2C(C)C)C(C2CC2)C2CC2)c(F)cc1C(C)C(=O)N1CC(O)CC1C(F)(F)F (single isomer, unassigned) [Compound 173]
- IC50: < 100 nM

SMILES: COc1cc(NC(=O)[C@@H](NC(=O)c2ccnn2C(C)C)C(C2CC2)C2CC2)c(F)cc1C(C)C(=O)NC(CO)C(F)(F)F (single isomer, unassigned) [Compound 180]
- IC50: < 100 nM

SMILES: COc1cc(NC(=O)[C@@H](NC(=O)c2ccnn2C(C)C)C(C2CC2)C2CC2)c(F)cc1C(C)C(=O)NC(CO)C(F)(F)F (single isomer, unassigned) [Compound 181]
- IC50: 100 to 1000 nM

SMILES: COc1cc(NC(=O)[C@@H](NC(=O)c2ccnn2C(C)C)C(C2CC2)C2CC2)c(F)cc1C(C)C(=O)N1CC(O)CC1C(F)(F)F (single isomer, unassigned) [Compound 182]
- IC50: > 1000 nM

SMILES: COc1cc(NC(=O)[C@@H](NC(=O)c2ccnn2C(C)C)C(C2CC2)C2CC2)c(F)cc1C(C)C(=O)N1CC(O)CC1C(F)(F)F (single isomer, unassigned) [Compound 183]
- IC50: > 1000 nM

SMILES: CC(C(=O)NCC(F)(F)F)c1cc(F)c(NC(=O)[C@@H](NC(=O)c2ccnn2C(C)C)C(C2CC2)C2CC2)cc1OC(F)(F)F (single isomer, unassigned) [Compound 185]
- IC50: < 100 nM

SMILES: CC(C(=O)NCC(F)(F)F)c1cc(F)c(NC(=O)[C@@H](NC(=O)c2ccnn2C(C)C)C(C2CC2)C2CC2)cc1NC(F)(F)F (single isomer, unassigned) [Compound 186]
- IC50: 100 to 1000 nM

SMILES: CC(C)n1nccc1C(=O)N[C@H](C(=O)Nc1ccc(C(N)C(=O)NCC(F)(F)F)cc1F)C(C1CC1)C1CC1 (single isomer, unassigned) [Compound 189]
- IC50: > 1000 nM

SMILES: CC(C)n1nccc1C(=O)N[C@H](C(=O)Nc1ccc(C(N)C(=O)NCC(F)(F)F)cc1F)C(C1CC1)C1CC1 (single isomer, unassigned) [Compound 191]
- IC50: 100 to 1000 nM

SMILES: Cc1cc(NC(=O)[C@@H](NC(=O)c2ccnn2C(C)C)C(C2CC2)C2CC2)c(F)cc1C(C)C(=O)N1CC(O)CC1C(F)(F)F (single isomer, unassigned) [Compound 199]
- IC50: < 100 nM

SMILES: Cc1cc(NC(=O)[C@@H](NC(=O)c2ccnn2C(C)C)C(C2CC2)C2CC2)c(F)cc1C(C)C(=O)N1CC(O)CC1C(F)(F)F (single isomer, unassigned) [Compound 200]
- IC50: 100 to 1000 nM

SMILES: COc1cc(NC(=O)[C@@H](NC(=O)c2ccnn2C(C)C)C(C2CC2)C2CC2)c(F)cc1C(C)C(=O)N1CC(O)CC1C(F)(F)F (single isomer, unassigned) [Compound 212]
- IC50: < 100 nM

SMILES: COc1cc(NC(=O)[C@@H](NC(=O)c2ccnn2C(C)C)C(C2CC2)C2CC2)c(F)cc1C(C)C(=O)N1CC(O)CC1C(F)(F)F (single isomer, unassigned) [Compound 213]
- IC50: 100 to 1000 nM

SMILES: CC(C(=O)NCC(F)(F)F)c1cc(F)c(NC(=O)[C@@H](NC(=O)c2ccnn2C(C)C)C2CCC(F)(F)CC2)cc1OC(F)(F)F (single isomer, unassigned) [Compound 219]
- IC50: 100 to 1000 nM

SMILES: CC(C(=O)NCC(F)(F)F)c1cc(F)c(NC(=O)[C@@H](NC(=O)c2ccnn2C(C)C)C2CCC(F)(F)CC2)cc1OC(F)(F)F (single isomer, unassigned) [Compound 220]
- IC50: > 1000 nM

SMILES: CC(C(=O)NC1CCC1(F)F)c1cc(F)c(NC(=O)[C@@H](NC(=O)c2ccnn2C(C)C)C(C2CC2)C2CC2)cc1C(F)(F)F (single isomer, unassigned) [Compound 230]
- IC50: 100 to 1000 nM

SMILES: CC(C(=O)NC1CCC1(F)F)c1cc(F)c(NC(=O)[C@@H](NC(=O)c2ccnn2C(C)C)C(C2CC2)C2CC2)cc1C(F)(F)F (single isomer, unassigned) [Compound 231]
- IC50: 100 to 1000 nM

SMILES: CCn1nccc1C(=O)N[C@H](C(=O)Nc1cc(C(F)(F)F)c(C(C)C(=O)NC(CO)C(F)(F)F)cc1F)C(C1CC1)C1CC1 (single isomer, unassigned) [Compound 240]
- IC50: < 100 nM

SMILES: CCn1nccc1C(=O)N[C@H](C(=O)Nc1cc(C(F)(F)F)c(C(C)C(=O)NC(CO)C(F)(F)F)cc1F)C(C1CC1)C1CC1 (single isomer, unassigned) [Compound 241]
- IC50: > 1000 nM

SMILES: CC(C(=O)NCC(F)(F)F)c1cc(F)c(NC(=O)[C@@H](NC(=O)c2ccnn2C(C)C)C(C2CC2)C2CC2)cc1Nc1ccccn1 (single isomer, unassigned) [Compound 261]
- IC50: > 1000 nM

SMILES: CC(C(=O)NCC(F)(F)F)c1cc(F)c(NC(=O)[C@@H](NC(=O)c2ccnn2C(C)C)C(C2CC2)C2CC2)cc1Nc1ccccn1 (single isomer, unassigned) [Compound 262]
- IC50: > 1000 nM

SMILES: CCn1nccc1C(=O)N[C@H](C(=O)Nc1ccc(CC(=O)N(C)CC(F)(F)F)cc1F)C1CCCCCC1 [Compound 1, (S)-N-(1-cycloheptyl-2-((2-fluoro-4-(2-(methyl(2,2,2-trifluoroethyl)amino)-2-oxoethyl)phenyl)amino)-2-oxoethyl)-1-ethyl-1H-pyrazole-5-carboxamide]
- IC50: 100 to 1000 nM

SMILES: CCn1nccc1C(=O)N[C@H](C(=O)Nc1ccc(CC(=O)NCC(F)(F)F)cc1F)C1CCCCCC1 [Compound 2, (S)-N-(1-cycloheptyl-2-((2-fluoro-4-(2-oxo-2-((2,2,2-trifluoroethyl)amino)ethyl)phenyl)amino)-2-oxoethyl)-1-ethyl-1H-pyrazole-5-carboxamide]
- IC50: 100 to 1000 nM

SMILES: CCn1nccc1C(=O)N[C@H](C(=O)Nc1ccc(CC(=O)N(C)C2(C(F)(F)F)CC2)cc1F)C1CCCCCC1 [Compound 5, (S)-N-(1-cycloheptyl-2-((2-fluoro-4-(2-(methyl(1-(trifluoromethyl)cyclopropyl)amino)-2-oxoethyl)phenyl)amino)-2-oxoethyl)-1-ethyl-1H-pyrazole-5-carboxamide]
- IC50: > 1000 nM

SMILES: CCn1nccc1C(=O)N[C@H](C(=O)Nc1ccc(C(C)(C)C(=O)NCC(F)(F)F)cc1F)C1CCCCCC1 [Compound 7, (S)-N-(1-cycloheptyl-2-((2-fluoro-4-(2-methyl-1-oxo-1-((2,2,2-trifluoroethyl)amino)propan-2-yl)phenyl)amino)-2-oxoethyl)-1-ethyl-1H-pyrazole-5-carboxamide]
- IC50: 100 to 1000 nM
